Drawing on patent publication US20090098115A1, “Cell lines and animal models of HER2 expressing tumors” (priority 2006, published 2009), this text covers cell proliferation for 1 compound.

The test system of one test is BT-474EEI cells. Briefly: In vitro cell proliferation assay (Cell Titer-Glo), BT-474EEI. The format is cell-based, human. To be noted: 0.0001 ug/ml to 10 ug/ml, 72 h (FIGS. 7B, 8B). On the procedure:
(§1) BT-474 and BT-474EE1 cells were plated in 96-well microtiter plates and incubated overnight at 37° in a humidified atmosphere of 5% CO2. […] After incubation for 72 h, Cell Titer-Glo reagent (Promega, Madison, Wis.) was added to the wells, and after a 10-min incubation at room temperature, the luminescent signal was recorded.
(In general: ATP-based viability assays read luminescence as a measure of living cells.)

In another test the test system is BT-474 cells. Briefly: In vitro cell proliferation assay (Cell Titer-Glo), BT-474. The following applies: BT-474, 0.0001 ug/ml to 10 ug/ml, 72 h (FIGS. 7A, 8A). The format is cell-based, human. The method, then:
as §1

SMILES strings stand for the structures.

With `C#Cc1cccc(Nc2ncnc3cc(OCCOC)c(OCCOC)cc23)c1` [Tarceva, Erlotinib], the cell proliferation entry was “reduced at high concentrations” in the test on BT-474EEI cells and “decreased with high doses” with BT-474 cells.
